According to PubChem BioAssay AID328 (DTP/NCI, 2004):
Where “and” joins values, the source holds several entries; their conditions need not be identical. Identical values can stand only once. Toxic doses and inconclusive results are not listed. How the source made its calls: active means survival T/C of 150% or more; inactive means T/C below 125% in these data.

Tested on: BDF1 mice, P388 leukemia ip, median survival T/C
Experiment: NCI In Vivo Anticancer Drug Screen. Data for tumor model P388 Leukemia (intraperitoneal) in B6D2F1 (BDF1) mice
Settings: endpoint: median survival time, higher = longer survival
Outline: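 In tumour-bearing mice, survival after compound treatment is set against the vehicle group and given as a quotient.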

[1] = dose: 50.0 mg/kg/injection, schedule: Q01DX009 (ip), vehicle: Klucel (hydroxypropylcellulose) (HPC)
[2] = dose: 100.0 mg/kg/injection, schedule: Q01DX009 (ip), vehicle: Klucel (hydroxypropylcellulose) (HPC)
[3] = dose: 100.0 mg/kg/injection, schedule: Q04DX003 (ip), vehicle: Klucel (hydroxypropylcellulose) (HPC)
[4] = dose: 12.5 mg/kg/injection, schedule: Q04DX003 (ip), vehicle: saline with Tween-80
[5] = dose: 25.0 mg/kg/injection, schedule: Q04DX003 (ip), vehicle: saline with Tween-80
[6] = dose: 100.0 mg/kg/injection, schedule: Q01DX009 (ip), vehicle: saline
[7] = dose: 200.0 mg/kg/injection, schedule: Q04DX003 (ip), vehicle: Klucel (hydroxypropylcellulose) (HPC)

Measured: T/C

COc1ccccc1/C=N\NC(C)=O
inactive: dose: 25.0 mg/kg/injection, schedule: Q01DX009 (ip), vehicle: Klucel (hydroxypropylcellulose) (HPC) 96 % of control | dose: 25.0 mg/kg/injection, schedule: Q04DX003 (ip), vehicle: Klucel (hydroxypropylcellulose) (HPC) 86 % of control | [1] 107 % of control | [2] 92 % of control | [3] 86 % of control

COc1ccc2c(c1)-c1nn(CCO)c(-c3ccncc3)c1CC2
inactive: dose: 100.0 mg/kg/injection, schedule: Q04DX002 (ip), vehicle: DMSO 100 % of control | dose: 200.0 mg/kg/injection, schedule: Q04DX002 (ip), vehicle: DMSO 99 % of control | dose: 400.0 mg/kg/injection, schedule: Q04DX002 (ip), vehicle: DMSO 103 % of control

CCCCN(CCCC)CC(O)c1ccc2cc(Cl)cc(Cl)c2n1 (configuration not stated)
inactive: dose: 6.25 mg/kg/injection, schedule: Q04DX003 (ip), vehicle: saline with Tween-80 110 % of control | [4] 115 % of control | [5] 110 % of control

CCCCCCCCCCC(N)P(=O)(O)O (configuration not stated)
inactive: [4] 92 % of control | [5] 92 % of control | dose: 50.0 mg/kg/injection, schedule: Q04DX003 (ip), vehicle: saline with Tween-80 92 % of control

CCC1c2ccc3cc(OC)ccc3c2CC1CC(=O)O (configuration not stated)
inactive: dose: 100.0 mg/kg/injection, schedule: Q01DX001 (ip), vehicle: other 100 % of control | dose: 200.0 mg/kg/injection, schedule: Q01DX001 (ip), vehicle: other 110 % of control | dose: 400.0 mg/kg/injection, schedule: Q01DX001 (ip), vehicle: other 105 % of control

S=c1nc[nH]c2nc[nH]c12.[Ag]
inactive: [6] 100 % of control | dose: 200.0 mg/kg/injection, schedule: Q01DX009 (ip), vehicle: saline 108 % of control | dose: 400.0 mg/kg/injection, schedule: Q01DX009 (ip), vehicle: saline 87 % of control

SC1(SC2(S)CCCCC2)CCCCC1
inactive: dose: 50.0 mg/kg/injection, schedule: Q01DX009 (ip), vehicle: saline with Tween-80 100 % of control | dose: 100.0 mg/kg/injection, schedule: Q01DX009 (ip), vehicle: saline with Tween-80 100 % of control | dose: 200.0 mg/kg/injection, schedule: Q01DX009 (ip), vehicle: saline with Tween-80 100 % of control

O=C1c2ccccc2CCC1(Br)C(Br)c1ccccc1 (configuration not stated)
inactive: dose: 100.0 mg/kg/injection, schedule: Q01DX001 (ip), vehicle: Klucel (hydroxypropylcellulose) (HPC) 100 % of control | [2] 100 % of control | [3] 113 % of control | dose: 130.0 mg/kg/injection, schedule: Q01DX001 (ip), vehicle: Klucel (hydroxypropylcellulose) (HPC) 90 % of control | dose: 133.0 mg/kg/injection, schedule: Q01DX001 (ip), vehicle: Klucel (hydroxypropylcellulose) (HPC) 100 % of control | dose: 200.0 mg/kg/injection, schedule: Q01DX001 (ip), vehicle: Klucel (hydroxypropylcellulose) (HPC) 100 % of control and 109 % of control | dose: 200.0 mg/kg/injection, schedule: Q01DX009 (ip), vehicle: Klucel (hydroxypropylcellulose) (HPC) 100 % of control | [7] 113 % of control | dose: 300.0 mg/kg/injection, schedule: Q01DX001 (ip), vehicle: Klucel (hydroxypropylcellulose) (HPC) 95 % of control and 100 % of control | dose: 400.0 mg/kg/injection, schedule: Q01DX001 (ip), vehicle: Klucel (hydroxypropylcellulose) (HPC) 112 % of control | dose: 400.0 mg/kg/injection, schedule: Q01DX009 (ip), vehicle: Klucel (hydroxypropylcellulose) (HPC) 100 % of control | dose: 400.0 mg/kg/injection, schedule: Q04DX003 (ip), vehicle: Klucel (hydroxypropylcellulose) (HPC) 121 % of control

O=C1C2CC=CCC2C(=O)N1SC(Cl)(Cl)Cl (configuration not stated)
inactive: dose: 6.25 mg/kg/injection, schedule: Q01DX009 (ip), vehicle: saline with Tween-80 120 % of control | dose: 12.5 mg/kg/injection, schedule: Q01DX009 (ip), vehicle: saline with Tween-80 120 % of control

O=[N+]([O-])c1cc([N+](=O)[O-])c(NN(c2ccc(Cl)cc2)c2ccc(Cl)cc2)c([N+](=O)[O-])c1
inactive: [1] 109 % of control | [2] 113 % of control | [3] 118 % of control | [7] 118 % of control

CCN(CC)CCSC(=O)C(O)(c1ccccc1)C1CCCC1 (configuration not stated)
inactive: dose: 25.0 mg/kg/injection, schedule: Q01DX009 (ip), vehicle: saline 109 % of control | dose: 25.0 mg/kg/injection, schedule: Q04DX003 (ip), vehicle: saline 109 % of control | dose: 50.0 mg/kg/injection, schedule: Q01DX009 (ip), vehicle: saline 95 % of control | dose: 50.0 mg/kg/injection, schedule: Q04DX003 (ip), vehicle: saline 104 % of control | [6] 113 % of control | dose: 100.0 mg/kg/injection, schedule: Q04DX003 (ip), vehicle: saline 109 % of control
